{"source": "patent US8906678B2", "about": "“Use of markers of undifferentiated pluripotent stem cell” (Agency for Science, Technology and Research, priority 2010, dated 2014)", "format_in_all_cases": "cell-based, human", "key": {"HES-3 cells": {"test_system": "HES-3 cells", "settings": "for killing efficiency on hESC, D-form vs L-form: 100 μm, after 120 hr; for relative viability: 100 μM", "procedure": "Viability was determined using Propidium Iodide (PI) assay, where cells were trypsinized and resuspended in binding buffer (10 mM HEPES/NaOH, 140 mM NaCl and 2.5 mM CaCl2) containing 1.25 mg/ml of PI. The cells were incubated at room temperature for 15 min before analyzing on the flow cytometer."}, "[1]": {"test_system": "MAPK pathway (ERK phosphorylation) in HES-3 cultures", "experiment": "SU5402 inhibitor study, ERK phosphorylation by western blot", "settings": "20 μM and 30 μM SU5402 for 2 h, then 10 ng/ml FGF-2 for 15 min", "procedure": "hESC cultured under various conditions were lysed and clarified via centrifugation before quantifying with the DC protein assay (Biorad, http://www.bio-rad.com). 20 ug of total protein from each condition was resolved and transferred onto membrane as described above. The resolved proteins were then immunoblotted with anti-actin (1:10,000; Abcam, http://www.abcam.com), anti-total ERK (1:1000; Sigma Aldrich) and anti-phospho-ERK (1:5000; Sigma Aldrich) antibodies. The protein bands were visualized using either ECL Plus detection reagent (Amersham, GE Healthcare, UK, http://www.gehealthcare.com) or LI-COR ODYSSY imaging system (LI-COR Biosciences, Nebraska, http://www.licor.com).\nEfficacy of SU5402 (Calbiochem, San Diego, USA, http://www.emdbiosciences.com) was determined by culturing hESC in absence of FGF-2 for 5 days, followed by incubating with 20 μM or 30 μM of SU5402 for 2 h before inducing the treated cultures with FGF-2 for 15 min. Cells were then lysed and the lysates were analyzed using western blot analysis."}, "[2]": {"test_system": "PHB surface expression in HES-3", "experiment": "SU5402 effect on PHB surface expression, flow cytometry, HES-3", "settings": "20 μM or 30 μM SU5402 for 7 days", "procedure": "Cells were harvested as single cell suspensions using trypsin, resuspended at 2×10^5 cells per 10 μl volume in 1% bovine serum albumin (BSA)/PBS and incubated for 45 min with each mAb clone (100 ul culture supernatant) or monoclonal TRA-1-60 antibody. (12.5 ug/ml; Chemicon, Temecula, Calif. http://www.chemicon.com). Cells were then washed with cold 1% BSA/PBS, and further incubated for 15 min with 1:500 dilution of fluorescein isothiocyanate (FITC)-conjugated goat α-mouse antibody (DAKO, Glostrup, Denmark, http://www.dako.com). After incubation, the cells were again washed and resuspended in 1% BSA/PBS for analysis on a FACScan (Becton, Dickinson and Company, Franklin Lakes, N.J., http://www.bd.com).\nTo observe the effect of SU5402 on expression of PHB in hESC, cells were seeded and allowed to adhere for 24 h before culturing them in the presence of SU5402 at concentrations of 20 μM or 30 μM for 7 days. Control cells were cultured similarly in the presence of the vehicle control, DMSO instead. Cells were subsequently harvested for flow cytometry analysis."}, "HES-3": {"test_system": "HES-3", "experiment": "Growth curve of HES-3 cultures (viable cell number vs time)", "procedure": "Human embryonic stem cell line, HES-3, was obtained from ES Cell International (ESI, Singapore, http://escellinternational.com). The cells were cultured at 37° C., 5% CO2, on matrigel-coated culture dishes supplemented with conditioned media from immortalized mouse embryonic fibroblast, ΔE-MEF. The media used for culturing hESC was Knockout (KO) media containing 85% KO-DMEM (DMEM, Dulbecco's modified Eagle's medium) supplemented with 15% KO serum replacer, 1 mM L-glutamine, 1% non-essential amino acids, 0.1 mM 2-mercaptoethanol, and 10 ng/ml basic fibroblast growth factor (FGF-2; Invitrogen, Carlsbad, Calif., http://www.invitrogen.com). The cells were treated with collagenase IV (200 U/ml) or TrypLE Express solution (Invitrogen) and dissociated into small clumps or single cells respectively by repeated pipetting. The cells were then reseeded onto matrigel-coated plates at a passage ratio 1:4.\n(§1) HES-3 and IMR-90 cells were cultured in 24 wells culture dishes supplemented with either 100 μM PHB-targeting pro-apoptotic peptide (CKGGRAKDC-GG-D(KLAKLAK)2 (SEQ ID NO:3)>90% purity; Sigma Aldrich) or 0.2% DMSO as control. Cultures were induced every 48 h and harvested daily for cell count. Cell numbers were determined using NucleoCounter according to the manufacturer's recommendations (Chemometec, Denmark, http://http://www.chemometec.com). The growth curves were generated by plotting viable cell number vs time. Specific growth rate, μ, was calculated as the gradient of the exponential phase, determined by plotting ln(cell number) vs time. Triplicates were done for each set of data."}, "IMR-90 cells": {"test_system": "IMR-90 cells", "experiment": "Growth curve of IMR-90 cells (specificity control)", "procedure": "Human fetal lung fibroblast cell line, IMR-90 (CCL-186), was purchased from American Type Culture Collection and cultured according to the supplier's instructions.\nas §1"}, "ESIMR90": {"test_system": "ESIMR90", "procedure": "Induced pluripotent stem cell line, ESIMR90, derived from lung fibroblasts, was obtained from James Thomson (18). ESIMR90 was cultured as per hESC cultures, with the exception of supplementing cultures with 100 ng/ml of FGF-2. For FGF-2 starved cultures, cells were maintained without FGF-2 as mentioned above. Viability was determined using Propidium Iodide (PI) assay, where cells were trypsinized and resuspended in binding buffer (10 mM HEPES/NaOH, 140 mM NaCl and 2.5 mM CaCl2) containing 1.25 mg/ml of PI. The cells were incubated at room temperature for 15 min before analyzing on the flow cytometer."}, "hESC [3]": {"test_system": "hESC", "experiment": "Detection of caspase-3 activity / annexin V, hESC", "settings": "100 μM peptide, 24 hours", "procedure": "(§2) To detect caspase-3 activity in treated hESC, cells grown in 24 wells were incubated with 5 μM of NucView 488 Caspase-3 substrate (Biotium Inc, www.biotium.com) and sulforhodamine 101-annexin V (1.25 ug/ml; Biotium Inc) at room temperature for 30 min. Cells were then washed once with PBS and examined under the Olympus IX70 fluorescence microscope (Olympus, http://www.olvmousamerica.com). For flow cytometry analysis, hESC was trypinsized before resuspending cells in PBS containing caspase-3 substrate and annexin V reagents."}, "ESIMR90 cells": {"test_system": "ESIMR90 cells", "experiment": "Detection of caspase-3 activity / annexin V, ESIMR90", "settings": "100 μM peptide, 24 hours", "procedure": "as §2"}, "hESC [4]": {"test_system": "hESC", "experiment": "TUNEL assay (nuclear DNA fragmentation)", "settings": "after 48 hours", "procedure": "Nuclear DNA fragmentation was measured via a TUNEL (Terminal deoxynucleotidyl transferase dUTP nick end labeling) assay kit (Promega, Madison, Wis., http://www.promega.com). Cells were harvested from each condition and fixed in 1% paraformaldehyde for 20 min on ice before permeabilizing them with ice-cold 70% ethanol at […] overnight. Subsequently, the cells were washed with PBS and incubated in 80 μl of equilibration buffer for 5 min at room temperature. The cells were pelleted down and resuspended in 50 μl of incubation buffer containing nucleotides and rTdT enzyme, followed by incubation at 37° C. for 1 h. The reaction was quenched using 20 mM EDTA and cells were resuspended in 0.1% Triton/0.5% BSA/PBS before analyzing on the flow cytometer. The green fluorescence of fluorescein-12-dUTP was detected in the FL1 channel."}, "[5]": {"settings": "100 μM of peptide, clump cultures"}}, "note": "Where two headings read alike, the source gives them in different places. Bridge positions count the residues as written; N and C are the ends. Square brackets hold non-standard residues; d marks the D form. Peptide text beside a SMILES is read from it."}
{"smiles": "CC(C)C[C@H](NC(=O)[C@H](CCCCN)NC(=O)CNC(=O)CNC(=O)[C@H](CS)NC(=O)[C@H](CC(=O)O)NC(=O)[C@H](CCCCN)NC(=O)[C@H](C)NC(=O)[C@H](CCCNC(=N)N)NC(=O)CNC(=O)CNC(=O)[C@H](CCCCN)NC(=O)[C@@H](N)CS)C(=O)N[C@@H](C)C(=O)N[C@@H](CCCCN)C(=O)N[C@@H](CC(C)C)C(=O)N[C@@H](C)C(=O)N[C@@H](CCCCN)C(=O)N[C@@H](CCCCN)C(=O)N[C@@H](CC(C)C)C(=O)N[C@@H](C)C(=O)N[C@@H](CCCCN)C(=O)N[C@@H](CC(C)C)C(=O)N[C@@H](C)C(=O)N[C@@H](CCCCN)C(=O)O", "note": "[L-form peptide] (H-CKGGRAKDCGGKLAKLAKKLAKLAK-OH; N-terminus and C-terminus assumed)", "values": [{"measurement": "killing efficiency on hESC, D-form vs L-form", "setting": "HES-3 cells", "value": "comparable"}, {"measurement": "hESC viability", "setting": "HES-3 cells; human, 120 hr", "value": "< 5", "unit": "%"}]}
{"smiles": "Cc1c[nH]c(/C=C2\\C(=O)Nc3ccccc32)c1CCC(=O)O", "note": "[SU5402]", "values": [{"measurement": "ERK phosphorylation", "setting": "[1]", "value": "suppression of ERK phosphorylation"}, {"measurement": "surface expression of PHB", "setting": "[2]", "value": "down-regulated surface expression of PHB"}]}
{"smiles": "CC(C)C[C@@H](NC(=O)[C@@H](CCCCN)NC(=O)CNC(=O)CNC(=O)[C@@H]1CSSC[C@H](N)C(=O)N[C@@H](CCCCN)C(=O)NCC(=O)NCC(=O)N[C@@H](CCCNC(=N)N)C(=O)N[C@@H](C)C(=O)N[C@@H](CCCCN)C(=O)N[C@@H](CC(=O)O)C(=O)N1)C(=O)N[C@H](C)C(=O)N[C@H](CCCCN)C(=O)N[C@H](CC(C)C)C(=O)N[C@H](C)C(=O)N[C@H](CCCCN)C(=O)N[C@H](CCCCN)C(=O)N[C@H](CC(C)C)C(=O)N[C@H](C)C(=O)N[C@H](CCCCN)C(=O)N[C@H](CC(C)C)C(=O)N[C@H](C)C(=O)N[C@H](CCCCN)C(=O)O", "note": "[peptide, CKGGRAKDC-GG-D(KLAKLAK)2] (H-CKGGRAKDCGG[dK][dL][dA][dK][dL][dA][dK][dK][dL][dA][dK][dL][dA][dK]-OH; disulfide 1-9; N-terminus and C-terminus assumed)", "values": [{"measurement": "initiation of death phase", "setting": "HES-3; [5]", "value": 70, "unit": "h"}, {"measurement": "td", "setting": "HES-3; [5]", "value": 61.3, "unit": "h"}, {"measurement": "specific growth rate", "setting": "HES-3; 100 μM of peptide, clump cultures, over 7 days", "value": 0.0113, "unit": "h⁻¹"}, {"measurement": "growth compared to the control", "setting": "HES-3; peptide supplemented to TrypLE passaged cultures", "value": "minimal growth"}, {"measurement": "growth rate μ", "setting": "IMR-90 cells; 100 μM of peptide", "value": 0.0167, "unit": "h⁻¹"}, {"measurement": "cell killing effect", "setting": "IMR-90 cells; IMR-90 cells, which do not express PHB on membrane", "value": "minimal cell killing effect"}, {"measurement": "killing efficiency on hESC, D-form vs L-form", "setting": "HES-3 cells", "value": "comparable"}, {"measurement": "toxic effect on hESC", "setting": "HES-3 cells; concentrations less than 100 μM", "value": "minimal"}, {"measurement": "time of incubation to cell death via apoptosis", "setting": "HES-3 cells; hESC", "value": "≤ 48", "unit": "h"}, {"measurement": "relative viability", "setting": "HES-3 cells; human, 24 h", "value": 84.7, "unit": "%"}, {"measurement": "relative viability", "setting": "HES-3 cells; human, 72 h", "value": 52.2, "unit": "%"}, {"measurement": "relative viability", "setting": "HES-3 cells; human, 120 h", "value": 21.7, "unit": "%"}, {"measurement": "viability", "setting": "HES-3 cells; human, 120 hr, 150 µM", "value": "< 10", "unit": "%"}, {"measurement": "viability", "setting": "HES-3 cells; human, 120 hr, 200 µM", "value": "< 10", "unit": "%"}, {"measurement": "apoptotic killing effect, dose dependence", "setting": "HES-3 cells; titrated over 20 μM to 200 μM", "value": "concentration-dependent"}, {"measurement": "time of incubation to cell death via apoptosis", "setting": "ESIMR90; IPSCs", "value": "≤ 48", "unit": "h"}, {"measurement": "relative viability", "setting": "ESIMR90; human, 72 h", "value": 33.4, "unit": "%"}, {"measurement": "population exhibiting elevated caspase-3 activity", "setting": "hESC [3]; flow cytometry", "value": 71.1, "unit": "%"}, {"measurement": "caspase-3 substrate and Annexin V staining", "setting": "hESC [3]; fluorescence microscopy", "value": "exhibited caspase-3 activity and phosphatidylserine (PS) externalization"}, {"measurement": "population exhibiting elevated caspase-3 activity", "setting": "ESIMR90 cells; flow cytometry", "value": 66.3, "unit": "%"}, {"measurement": "caspase-3 substrate and Annexin V staining", "setting": "ESIMR90 cells; fluorescence microscopy", "value": "exhibited caspase-3 activity and phosphatidylserine (PS) externalization"}, {"measurement": "DNA fragmentation compared to the control", "setting": "hESC [4]", "value": "significant increase in DNA fragmentation"}]}
